{"source": "patent US20100144725A1", "about": "“PESTICIDAL COMBINATIONS” (SYNGENTA CROP PROTECTION, INC., priority 2007, published 2010)", "key": {"[1]": {"tested_on": "Pyrenophora graminea", "experiment": "Fungal growth assay, Pyrenophora graminea (leaf stripe of barley), microtiter plate, photometric", "format": "cell-based", "conditions": "72 hrs", "description": "The action to be expected E for a given active ingredient combination obeys the so-called COLBY formula and can be calculated as follows (COLBY, S. R. “Calculating synergistic and antagonistic responses of herbicide combination”. Weeds, Vol. 15, pages 20-22; 1967): If the action actually observed (O) is greater than the expected action (E), then the action of the combination is super-additive, i.e. there is a synergistic effect. Inhibiting of fungal growth of the following fungi are carried out by fungal growth assays (detailed below). Pyrenophora […] stripe of barley): Conidia of the fungus from cryogenic storage are directly mixed into nutrient broth (PDB potato dextrose broth). After placing a (DMSO) solution of the test compounds into a microtiter plate (96-well format) the nutrient broth containing the fungal spores is added. The test plates are incubated at 24 C and the inhibition of growth is measured photometrically after 72 hrs. The fungicide interactions in the combinations are calculated according to COLBY method, where A is thiabendazole and B is a mixture of tebuconazole and azoxystrobin in a mass ratio of 2:1. The results for A & B solo are shown in Table below and those for the combinations in a range of ratios in Table 1."}, "[2]": {"tested_on": "Rhizoctonia solani", "experiment": "Fungal growth assay, Rhizoctonia solani (foot rot, damping-off), microtiter plate, photometric", "format": "cell-based", "conditions": "72 hrs", "description": "The action to be expected E for a given active ingredient combination obeys the so-called COLBY formula and can be calculated as follows (COLBY, S. R. “Calculating synergistic and antagonistic responses of herbicide combination”. Weeds, Vol. 15, pages 20-22; 1967): If the action actually observed (O) is greater than the expected action (E), then the action of the combination is super-additive, i.e. there is a synergistic effect. Inhibiting of fungal growth of the following fungi are carried out by fungal growth assays (detailed below). Rhizoctonia solani (foot rot, damping-off): Mycelial fragments of a newly grown culture of the fungus are directly mixed into nutrient broth (PDB potato dextrose broth). After placing a (DMSO) solution of the test compounds into a microtiter plate (96-well format) the nutrient broth containing the fungal spores is added. The test plates were incubated at 24 C and the inhibition of growth is measured photometrically after 72 hrs. The fungicide interactions in the combinations are calculated according to COLBY method, where C is ipconazole and D is a mixture of tebuconazole and azoxystrobin in a mass ratio of 2:1. The results for C & D solo are shown in Table below and those for the combinations in a range of ratios in Table 2."}}, "data": [{"smiles": "c1ccc2[nH]c(-c3cscn3)nc2c1", "note": "[A, thiabendazole]", "values": [{"measurement": "Observed control in %", "setting": "[1]; A solo 0.004 ppm", "result": 0, "unit": "%"}, {"measurement": "Observed control in %", "setting": "[1]; A solo 0.008 ppm", "result": 0, "unit": "%"}, {"measurement": "Observed control in %", "setting": "[1]; A solo 0.016 ppm", "result": 0, "unit": "%"}, {"measurement": "Observed control in %", "setting": "[1]; A solo 0.031 ppm", "result": 0, "unit": "%"}, {"measurement": "Observed control in %", "setting": "[1]; A solo 0.063 ppm", "result": 0, "unit": "%"}, {"measurement": "Observed control in %", "setting": "[1]; A solo 0.125 ppm", "result": 1, "unit": "%"}, {"measurement": "Observed control in %", "setting": "[1]; A solo 0.25 ppm", "result": 10, "unit": "%"}, {"measurement": "Observed control in %", "setting": "[1]; A solo 0.5 ppm", "result": 25, "unit": "%"}, {"measurement": "Observed control in %", "setting": "[1]; A solo 1.0 ppm", "result": 29, "unit": "%"}, {"measurement": "Observed control in %", "setting": "[1]; A solo 2.0 ppm", "result": 22, "unit": "%"}]}, {"smiles": "CC(C)C1CCC(Cc2ccc(Cl)cc2)C1(O)Cn1cncn1", "note": "(centres unmarked) [C, ipconazole]", "values": [{"measurement": "Observed control in %", "setting": "[2]; C solo 0.004 ppm", "result": 9, "unit": "%"}, {"measurement": "Observed control in %", "setting": "[2]; C solo 0.008 ppm", "result": 3, "unit": "%"}, {"measurement": "Observed control in %", "setting": "[2]; C solo 0.016 ppm", "result": 0, "unit": "%"}, {"measurement": "Observed control in %", "setting": "[2]; C solo 0.031 ppm", "result": 7, "unit": "%"}, {"measurement": "Observed control in %", "setting": "[2]; C solo 0.063 ppm", "result": 0, "unit": "%"}, {"measurement": "Observed control in %", "setting": "[2]; C solo 0.125 ppm", "result": 0, "unit": "%"}, {"measurement": "Observed control in %", "setting": "[2]; C solo 0.25 ppm", "result": 2, "unit": "%"}, {"measurement": "Observed control in %", "setting": "[2]; C solo 0.5 ppm", "result": 5, "unit": "%"}, {"measurement": "Observed control in %", "setting": "[2]; C solo 1.0 ppm", "result": 0, "unit": "%"}, {"measurement": "Observed control in %", "setting": "[2]; C solo 2.0 ppm", "result": 9, "unit": "%"}]}]}
